Measured values reported in patent US20160376263A1, “BITTER TASTE MODIFIERS INCLUDING SUBSTITUTED 1-BENZYL-3-(1-(ISOXAZOL-4-YLMETHYL)-1H-PYRAZOL-4-YL)IMIDAZOLIDINE-2,4-DIONES AND COMPOSITIONS THEREOF” (SENOMYX, INC., priority 2016, published 2016).

Legend:
[1] = target: T1, hT2R8 bitter receptor (Homo sapiens, UniProt Q9NYW2); assay: hT2R8 bitter receptor inhibition; type: cell-based; conditions: read-out: IC50, inhibition of hT2R08 bitter receptor
T1 sequence (Q9NYW2 1-309): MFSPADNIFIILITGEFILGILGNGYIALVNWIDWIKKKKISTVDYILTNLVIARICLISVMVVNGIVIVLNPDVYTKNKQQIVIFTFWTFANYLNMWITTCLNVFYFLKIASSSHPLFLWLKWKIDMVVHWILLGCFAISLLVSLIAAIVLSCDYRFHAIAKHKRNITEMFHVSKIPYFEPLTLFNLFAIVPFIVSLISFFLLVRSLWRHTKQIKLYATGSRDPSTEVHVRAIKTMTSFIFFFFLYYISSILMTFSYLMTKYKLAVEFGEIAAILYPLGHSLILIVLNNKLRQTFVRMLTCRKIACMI

melting point: 213 to 215 °C
IC50 [1]: 10 nM
SMILES: Cc1noc(C)c1Cn1cc(N2C(=O)N(Cc3cc(O)cc(O)c3)C(C)(C)C2=O)cn1 [Example 105]
